≈ marks a conversion by molar mass, not a printed value.
Legend:
[1] = molecular target: Maternal embryonic leucine zipper kinase (Homo sapiens) (UniProt Q14680); test: Inhibition of human recombinant full-length MELK expressed in Escherichia coli at 1 uM using KKLNRTLSFAEPG as substrate after 30 mins
[2] = molecular target: Mitogen-activated protein kinase 13 (Homo sapiens) (UniProt O15264); test: Inhibition of MAPK13 (unknown origin) at 1 uM
[3] = molecular target: Tyrosine-protein kinase CSK (Homo sapiens) (UniProt P41240); test: Inhibition of human recombinant full-length CSK at 1 uM after 30 mins
[4] = molecular target: Ephrin type-B receptor 3 (Homo sapiens) (UniProt P54753); test: Inhibition of EPHB3 (unknown origin) at 1 uM
[5] = molecular target: Protein kinase C zeta type (Homo sapiens) (UniProt Q05513); test: Inhibition of PKCz (unknown origin) at 1 uM
Chain of Protein kinase C zeta type (Homo sapiens) (Q05513 whole entry): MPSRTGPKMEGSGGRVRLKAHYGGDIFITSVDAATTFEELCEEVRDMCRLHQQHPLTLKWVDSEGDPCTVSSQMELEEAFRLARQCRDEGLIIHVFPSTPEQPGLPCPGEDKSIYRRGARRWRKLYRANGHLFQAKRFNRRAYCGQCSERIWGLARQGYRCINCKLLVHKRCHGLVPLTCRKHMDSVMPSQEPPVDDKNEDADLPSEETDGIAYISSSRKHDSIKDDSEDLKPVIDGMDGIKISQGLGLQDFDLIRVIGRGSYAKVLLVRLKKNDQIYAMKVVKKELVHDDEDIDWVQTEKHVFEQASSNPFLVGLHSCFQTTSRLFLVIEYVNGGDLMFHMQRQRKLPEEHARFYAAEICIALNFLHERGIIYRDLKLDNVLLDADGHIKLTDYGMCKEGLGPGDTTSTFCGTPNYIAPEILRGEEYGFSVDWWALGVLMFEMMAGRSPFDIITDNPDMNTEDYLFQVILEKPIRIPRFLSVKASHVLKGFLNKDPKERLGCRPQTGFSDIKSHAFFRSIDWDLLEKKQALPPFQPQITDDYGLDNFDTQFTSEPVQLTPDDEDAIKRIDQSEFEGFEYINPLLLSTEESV

[6] = molecular target: Ribosomal protein S6 kinase beta-1 (Homo sapiens) (UniProt P23443); test: Inhibition of P70S6K (unknown origin) at 1 uM
[7] = molecular target: Glycogen synthase kinase-3 beta (Homo sapiens) (UniProt P49841); test: Inhibition of human recombinant full-length GSK3beta at 1 uM after 30 mins
[8] = molecular target: MAP kinase-activated protein kinase 2 (Homo sapiens) (UniProt P49137); test: Inhibition of human recombinant […] MAPKAPK2 (46 to 400 residues) expressed in Escherichia coli at 1 uM after 30 mins
[9] = molecular target: Casein kinase II (Homo sapiens) (UniProt P67870+P68400+P19784); test: Inhibition of human recombinant full-length CK2 at 1 uM after 30 mins; type: protein-complex assay
Mus musculus [10] = test: Free Cmax in nude mouse at 50 mg/kg, po administered as single dose after 24 hrs; type: ADME, organism-based; conditions: in vivo
[11] = molecular target: Bone morphogenetic protein receptor type-1A (Homo sapiens, UniProt P36894); test: Inhibition of human recombinant N-terminal GST-tagged ALK3 (187 to 432 residues) expressed in insect cells by FRET assay
[12] = molecular target: Myosin light chain kinase, smooth muscle (Homo sapiens) (UniProt Q15746); test: Inhibition of human recombinant smMLCK (475 to 838 residues) expressed in Escherichia coli at 1 uM using KKRPQRATSNVFA as substrate after 30 mins
Chain of Myosin light chain kinase, smooth muscle (Homo sapiens) (Q15746 whole entry, the tested form may be a part): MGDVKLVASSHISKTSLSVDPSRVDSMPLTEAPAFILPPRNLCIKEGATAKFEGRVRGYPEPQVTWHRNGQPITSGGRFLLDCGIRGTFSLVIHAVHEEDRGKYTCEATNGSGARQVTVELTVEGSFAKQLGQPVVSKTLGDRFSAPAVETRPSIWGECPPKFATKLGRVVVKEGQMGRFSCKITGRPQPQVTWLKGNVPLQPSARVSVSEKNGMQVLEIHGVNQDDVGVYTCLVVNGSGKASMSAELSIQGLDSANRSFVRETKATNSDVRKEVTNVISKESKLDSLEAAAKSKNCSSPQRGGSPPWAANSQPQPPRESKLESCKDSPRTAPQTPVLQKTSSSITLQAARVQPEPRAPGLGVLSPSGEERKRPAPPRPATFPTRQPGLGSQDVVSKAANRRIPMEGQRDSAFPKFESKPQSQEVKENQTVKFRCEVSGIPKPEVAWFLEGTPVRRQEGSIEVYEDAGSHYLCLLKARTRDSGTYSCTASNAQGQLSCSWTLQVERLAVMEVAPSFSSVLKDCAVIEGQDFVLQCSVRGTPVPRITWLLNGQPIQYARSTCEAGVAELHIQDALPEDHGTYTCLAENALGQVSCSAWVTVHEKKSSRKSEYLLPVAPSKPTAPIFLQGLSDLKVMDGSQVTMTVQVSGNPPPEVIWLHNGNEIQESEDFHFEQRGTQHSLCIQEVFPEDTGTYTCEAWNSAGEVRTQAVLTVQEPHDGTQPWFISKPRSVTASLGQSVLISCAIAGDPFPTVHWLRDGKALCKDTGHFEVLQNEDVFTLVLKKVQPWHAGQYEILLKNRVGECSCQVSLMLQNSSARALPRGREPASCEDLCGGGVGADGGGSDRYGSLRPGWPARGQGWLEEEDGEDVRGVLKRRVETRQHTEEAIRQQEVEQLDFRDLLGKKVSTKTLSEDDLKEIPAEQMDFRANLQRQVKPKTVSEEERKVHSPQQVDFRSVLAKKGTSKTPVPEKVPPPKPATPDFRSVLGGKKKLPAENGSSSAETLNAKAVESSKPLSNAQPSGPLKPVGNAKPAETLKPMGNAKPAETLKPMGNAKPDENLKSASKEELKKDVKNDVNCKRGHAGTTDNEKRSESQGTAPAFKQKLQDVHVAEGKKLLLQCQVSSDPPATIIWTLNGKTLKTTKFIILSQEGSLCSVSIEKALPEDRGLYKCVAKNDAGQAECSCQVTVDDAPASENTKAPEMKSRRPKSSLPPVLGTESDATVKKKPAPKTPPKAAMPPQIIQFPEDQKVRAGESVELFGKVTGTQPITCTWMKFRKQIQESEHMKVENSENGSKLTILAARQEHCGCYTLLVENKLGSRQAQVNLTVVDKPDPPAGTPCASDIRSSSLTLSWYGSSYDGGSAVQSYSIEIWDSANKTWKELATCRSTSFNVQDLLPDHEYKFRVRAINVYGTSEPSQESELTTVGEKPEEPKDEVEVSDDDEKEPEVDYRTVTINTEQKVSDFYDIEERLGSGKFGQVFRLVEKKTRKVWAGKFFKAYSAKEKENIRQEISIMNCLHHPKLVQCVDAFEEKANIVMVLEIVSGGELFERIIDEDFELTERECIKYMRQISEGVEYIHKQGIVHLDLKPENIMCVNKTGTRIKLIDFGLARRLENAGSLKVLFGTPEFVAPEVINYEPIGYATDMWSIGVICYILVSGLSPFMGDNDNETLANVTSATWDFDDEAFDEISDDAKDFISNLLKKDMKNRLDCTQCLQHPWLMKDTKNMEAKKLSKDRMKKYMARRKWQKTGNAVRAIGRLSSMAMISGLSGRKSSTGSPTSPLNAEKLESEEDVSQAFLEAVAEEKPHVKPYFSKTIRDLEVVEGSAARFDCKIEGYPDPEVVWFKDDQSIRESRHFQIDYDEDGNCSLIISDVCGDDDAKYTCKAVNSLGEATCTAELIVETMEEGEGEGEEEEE

[13] = molecular target: Insulin receptor (Homo sapiens) (UniProt P06213); test: Inhibition of INSR (unknown origin) at 1 uM
[14] = molecular target: Aurora kinase B (Homo sapiens) (UniProt Q96GD4); test: Inhibition of human recombinant full-length AurKB expressed in insect Sf21 cells at 1 uM using LRRLSLGLRRLSLGLRRLSLGLRRLSLG as substrate after 30 mins
[15] = molecular target: Eukaryotic elongation factor 2 kinase (Homo sapiens) (UniProt O00418); test: Inhibition of human recombinant full-length EF2K expressed in Escherichia coli at 1 uM using RKKFGESKTKTKEFL as substrate after 30 mins
[16] = Clearance in Han Wistar rat; type: ADME, organism-based; conditions: in vivo
[17] = molecular target: Serine/threonine-protein kinase Nek6 (Homo sapiens) (UniProt Q9HC98); test: Inhibition of human recombinant NEK6 (8 to 313 residues) expressed in insect Sf21 cells at 1 uM using FLAKSFGSPNRAYKK as substrate after 30 mins
Chain of Serine/threonine-protein kinase Nek6 (Homo sapiens) (Q9HC98 whole entry, the tested form may be a part): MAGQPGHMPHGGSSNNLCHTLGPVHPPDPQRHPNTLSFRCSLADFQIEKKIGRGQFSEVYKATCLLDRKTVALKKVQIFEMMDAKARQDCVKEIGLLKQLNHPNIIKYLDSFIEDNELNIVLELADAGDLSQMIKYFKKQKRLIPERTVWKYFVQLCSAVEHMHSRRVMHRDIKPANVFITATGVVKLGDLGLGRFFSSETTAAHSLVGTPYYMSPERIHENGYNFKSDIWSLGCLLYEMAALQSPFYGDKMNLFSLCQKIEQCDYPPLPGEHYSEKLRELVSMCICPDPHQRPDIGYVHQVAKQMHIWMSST

[18] = Solubility of the compound; type: physicochemical
[19] = molecular target: Mitogen-activated protein kinase 9 (Homo sapiens) (UniProt P45984); test: Inhibition of MAPK9 (unknown origin) at 1 uM
Activin receptor type-1B = Activin receptor type-1B (Homo sapiens, UniProt P36896); test: Inhibition of human recombinant GST-tagged ALK4 expressed in baculovirus by FRET assay
[20] = molecular target: Serine/threonine-protein kinase Nek2 (Homo sapiens) (UniProt P51955); test: Inhibition of human recombinant full-length NEK2a expressed in insect Sf21 cells at 1 uM using RFRRSRRMI as substrate after 30 mins
[21] = molecular target: Serine/threonine-protein kinase TBK1 (Homo sapiens) (UniProt Q9UHD2); test: Inhibition of human recombinant full-length TBK1 expressed in insect Sf21 cells at 1 uM using AKPKGNKDYHLQTCCGSLAYRRR as substrate
Chain of Serine/threonine-protein kinase TBK1 (Homo sapiens) (Q9UHD2 whole entry): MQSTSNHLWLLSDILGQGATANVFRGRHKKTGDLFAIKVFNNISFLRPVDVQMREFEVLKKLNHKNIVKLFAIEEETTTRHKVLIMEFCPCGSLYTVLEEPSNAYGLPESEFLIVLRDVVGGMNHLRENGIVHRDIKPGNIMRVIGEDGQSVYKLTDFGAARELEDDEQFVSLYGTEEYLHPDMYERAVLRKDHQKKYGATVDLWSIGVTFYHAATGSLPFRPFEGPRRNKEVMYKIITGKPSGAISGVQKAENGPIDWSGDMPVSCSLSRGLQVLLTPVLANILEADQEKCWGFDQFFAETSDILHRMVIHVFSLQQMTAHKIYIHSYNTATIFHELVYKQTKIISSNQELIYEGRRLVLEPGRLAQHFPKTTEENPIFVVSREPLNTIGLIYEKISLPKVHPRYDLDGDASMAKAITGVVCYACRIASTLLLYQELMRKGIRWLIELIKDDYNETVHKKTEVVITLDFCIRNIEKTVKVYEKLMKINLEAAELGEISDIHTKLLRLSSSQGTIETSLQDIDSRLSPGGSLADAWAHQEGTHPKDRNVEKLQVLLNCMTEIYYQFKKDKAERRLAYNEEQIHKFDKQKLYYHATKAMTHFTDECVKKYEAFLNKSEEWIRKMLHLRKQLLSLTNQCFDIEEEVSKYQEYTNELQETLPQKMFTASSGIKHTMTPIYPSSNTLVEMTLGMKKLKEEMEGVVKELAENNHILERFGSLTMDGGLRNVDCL

[22] = molecular target: Bone morphogenetic protein receptor type-1B (Homo sapiens, UniProt O00238); test: Inhibition of human recombinant N-terminal GST-tagged ALK6 (149 amino acids end) expressed in baculovirus infected Sf9 insect cells by FRET assay
Chain of Bone morphogenetic protein receptor type-1B (O00238 whole entry): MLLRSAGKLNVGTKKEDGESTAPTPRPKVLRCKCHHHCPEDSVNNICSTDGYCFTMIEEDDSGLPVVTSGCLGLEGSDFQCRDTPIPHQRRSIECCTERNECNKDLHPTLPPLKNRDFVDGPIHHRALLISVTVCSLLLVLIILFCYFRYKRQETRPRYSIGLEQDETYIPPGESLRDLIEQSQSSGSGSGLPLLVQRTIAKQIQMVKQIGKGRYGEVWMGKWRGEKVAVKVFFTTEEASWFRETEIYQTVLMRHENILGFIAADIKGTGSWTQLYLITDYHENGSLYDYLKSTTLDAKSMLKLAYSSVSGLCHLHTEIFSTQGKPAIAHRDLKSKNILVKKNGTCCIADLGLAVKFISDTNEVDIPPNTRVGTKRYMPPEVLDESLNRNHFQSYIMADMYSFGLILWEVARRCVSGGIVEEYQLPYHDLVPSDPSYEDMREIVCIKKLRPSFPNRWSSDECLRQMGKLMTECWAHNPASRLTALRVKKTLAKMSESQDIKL

[23] = molecular target: Serine/threonine-protein kinase PAK 4 (Homo sapiens) (UniProt O96013); test: Inhibition of human recombinant full-length PAK4 expressed in Escherichia coli at 1 uM using RRRLSFAEPG as substrate after 30 mins
[24] = molecular target: MAP kinase-interacting serine/threonine-protein kinase 1 (Homo sapiens) (UniProt Q9BUB5); test: Inhibition of human recombinant full-length MNK1 expressed in Escherichia coli at 1 uM using eIF4E as substrate after 30 mins
[25] = molecular target: MAP/microtubule affinity-regulating kinase 3 (Homo sapiens) (UniProt P27448); test: Inhibition of human recombinant full-length MARK3 expressed in insect Sf21 cells at 1 uM using KKKVSRSGLYRSPSMPENLNRPR as substrate after 30 mins
[26] = molecular target: SRSF protein kinase 1 (Homo sapiens) (UniProt Q96SB4); test: Inhibition of human recombinant full-length SRPK1 expressed in Escherichia coli at 1 uM using RSRSRSRSRSRSRSR as substrate after 30 mins
Activin receptor type-1 = Activin receptor type-1 (Homo sapiens, UniProt Q04771); test: Inhibition of human recombinant GST-tagged ALK2 (amino acid 147 end) by FRET assay
Chain of Activin receptor type-1 (Q04771 whole entry): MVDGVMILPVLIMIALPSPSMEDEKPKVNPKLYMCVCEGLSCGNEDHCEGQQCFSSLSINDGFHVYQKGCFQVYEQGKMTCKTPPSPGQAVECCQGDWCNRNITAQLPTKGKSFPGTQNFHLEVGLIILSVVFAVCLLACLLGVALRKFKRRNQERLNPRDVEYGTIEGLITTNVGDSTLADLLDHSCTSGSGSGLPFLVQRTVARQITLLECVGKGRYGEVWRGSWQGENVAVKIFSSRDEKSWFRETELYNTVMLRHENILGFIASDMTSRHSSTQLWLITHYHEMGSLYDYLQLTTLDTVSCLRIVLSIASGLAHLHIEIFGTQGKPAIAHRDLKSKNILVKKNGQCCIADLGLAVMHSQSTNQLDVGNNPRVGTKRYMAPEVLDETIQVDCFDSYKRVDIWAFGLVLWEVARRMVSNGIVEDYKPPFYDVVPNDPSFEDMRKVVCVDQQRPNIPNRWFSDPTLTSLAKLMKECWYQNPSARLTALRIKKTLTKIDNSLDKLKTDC

[27] = molecular target: Ribosomal protein S6 kinase alpha-5 (Homo sapiens) (UniProt O75582); test: Inhibition of human recombinant full-length MSK1 at 1 uM after 30 mins
[28] = molecular target: Serine/threonine-protein kinase pim-3 (Homo sapiens) (UniProt Q86V86); test: Inhibition of human recombinant full-length PIM3 expressed in insect Sf21 cells at 1 uM using RSRHSSYPAGT as substrate after 30 mins
[29] = molecular target: Tyrosine-protein kinase SYK (Homo sapiens) (UniProt P43405); test: Inhibition of SYK (unknown origin) at 1 uM
Mus musculus [30] = test: Free drug concentration in nude mouse at 50 mg/kg, po administered as single dose after 24 hrs; type: ADME, organism-based; conditions: in vivo
[31] = molecular target: Activin receptor type-1-like (Homo sapiens, UniProt P37023); test: Inhibition of ALK1 (unknown origin)
Chain of Activin receptor type-1-like (P37023 whole entry): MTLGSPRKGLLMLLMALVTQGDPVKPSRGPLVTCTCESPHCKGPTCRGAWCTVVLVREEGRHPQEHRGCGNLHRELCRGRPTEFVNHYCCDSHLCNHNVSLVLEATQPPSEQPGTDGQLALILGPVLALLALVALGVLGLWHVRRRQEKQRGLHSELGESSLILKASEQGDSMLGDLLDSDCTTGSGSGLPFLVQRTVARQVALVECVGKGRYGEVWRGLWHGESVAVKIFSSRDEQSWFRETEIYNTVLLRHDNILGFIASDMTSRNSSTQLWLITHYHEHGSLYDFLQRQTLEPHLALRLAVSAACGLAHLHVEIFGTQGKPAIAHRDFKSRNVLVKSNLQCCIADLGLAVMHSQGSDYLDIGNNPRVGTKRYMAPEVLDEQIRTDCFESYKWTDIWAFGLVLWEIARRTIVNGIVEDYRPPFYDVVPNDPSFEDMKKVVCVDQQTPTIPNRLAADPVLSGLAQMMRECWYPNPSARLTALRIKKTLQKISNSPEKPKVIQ

[32] = molecular target: Insulin-like growth factor 1 receptor (Homo sapiens) (UniProt P08069); test: Inhibition of IGF1R (unknown origin) at 1 uM
[33] = molecular target: Serine/threonine-protein kinase D1 (Homo sapiens) (UniProt Q15139); test: Inhibition of human recombinant full-length PKD1 expressed in insect Sf21 cells at 1 uM using KKLNRTLSVA as substrate after 30 mins
[34] = Fraction unbound in mouse plasma; type: ADME, cell-free

O=C(Nc1cc(Nc2c(Cl)cnc3c2OCO3)ccn1)C1CC1
inhibition [1]: < 80%
inhibition [2]: < 80%
inhibition [3]: < 80%
inhibition [4]: < 80%
inhibition [5]: < 80%
inhibition [6]: < 80%
inhibition [7]: < 80%
inhibition [8]: < 80%
inhibition [9]: < 80%
fCmax (Mus musculus [10]): 31.7 µM
IC50 [11]: 2.4 nM
inhibition [12]: < 80%
inhibition [13]: < 80%
inhibition [14]: < 80%
inhibition [15]: < 80%
clearance [16]: 8.4 mL/min/kg
inhibition [17]: < 80%
solubility [18]: 63 µM (≈ 21 µg/mL)
inhibition [19]: < 80%
IC50 (Activin receptor type-1B): 31 nM
inhibition [20]: < 80%
inhibition [21]: < 80%
IC50 [22]: 1300 nM
inhibition [23]: < 80%
inhibition [24]: < 80%
inhibition [25]: < 80%
inhibition [26]: < 80%
IC50 (Activin receptor type-1): 1.2 nM
inhibition [27]: < 80%
inhibition [28]: < 80%
inhibition [29]: < 80%
Drug uptake(free) (Mus musculus [30]): 0.37 µM
IC50 [31]: 4 nM
inhibition [32]: < 80%
inhibition [33]: < 80%
fraction unbound [34]: 0.27
